Like-named read-outs stand apart in the source and are kept apart here. Values belong to the compound of their own block, whether it stands above or below them.
Tests used:
[1] = tested on: Ovcar3 ovarian cancer cells; experiment: Chamber cell migration (transwell) assay; format: cell-based, human; conditions: for IC50: OVCAR-3; for inhibiting the migration of human ovarian cancer cells in the transwell assay: Ovcar3
Method: Cell migrations of Ovcar3 ovarian cancer cells were assayed with 8 μm of microporous 6.5-mm transwell plates (Corning). 100 wl of 5×10^4 cells in serum-free RPMI1640 medium containing 0.5% BSA were added to the upper chamber and 600 μl of medium with 10% fetal bovine serum was added to the lower chamber. Transwells were incubated for 12 hours with following concentrations of chemical compounds in both upper and lower chambers (1 nM, 10 nM, 100 nM 1 μM, 10 μM). Cells on the inside of the transwell inserts were removed with a cotton swab, and cells on the under side of the insert were fixed and stained. Photographs of three random regions were taken and the number of cells was counted to calculate the average number of cells that had transmigrated. Data shown is the average of at least three experiments.

human tumor cells [2] = conditions: Nakae et al., J. Antibiot., 2001; cited from earlier work
human tumor cells [3] = conditions: Nakae et al., J. Antibiot., 2001; cited from earlier work; remark: listed apart in the source
Ovcar3 tumor cells = experiment: Wound healing assay; format: cell-based, human; conditions: 250 nM
Method: The tumor cells (Ovcar3) were seeded into 24-multiwell plates (Becton-Dickinson) and cultivated until the cells formed a confluent monolayer. Wounds were set by horizontally scratching the monolayer with a sterile pipette tip. The cells were thereafter washed twice with Phosphate Buffered Saline (PBS) to remove detached cells. Growth media was then added containing 250 nM of the chemical compounds (21, 22, and 30) and incubated at 37° C. The cells were photographed at the beginning of the experiment and after 24 to assess the progression of cell migration into the wound.

Stability in mice plasma = format: in vitro ADME
[4] = tested on: human ovarian tumor cell line OVCAR3; experiment: In vivo metastatic model (ovarian xenograph, luciferase tumor imaging); set-up: species or system mouse; conditions: treated mice
Source text: The human ovarian tumor cell line OVCAR3 was transduced with a triple fusion gene HSV-TK/eGFP/FLuc, expressing thymidine kinase, enhanced green fluorescence protein and firefly luciferase. Whole animal imaging by luciferase bioluminescence (FIG. 5A), allowed identification and quantification of disseminated tumor. We quantified the tumor burden in each organ, by sacrificing the mouse shortly after luciferin injecting and imaging of the dissected organs (lung, liver and spleen) (FIG. 5B). In all instances tumor engraftment was initiated with 1−5×10^7 cells and the recipients received 3 Gy irradiation 10 days before tumor engraftment. These tumor cells generated bulky omental metastases with diffuse microscopic peritoneal carcinomatosis causing ascites (FIG. 5A) with, significant pleural effusion and liver, lung and paraaortic metastases (FIG. 6).

[5] = Homo sapiens, Ovcar3 cells, 12 hours, read-out: IC50, transwell assay
[6] = after 12h, human ovarian cancer cells, read-out: concentration at which 50% of the migration was inhibited in the transwell assay

SMILES: CO[C@H]1/C=C/CC/C=C/C(=O)O[C@H]([C@H](C)C(=O)CCCC2CC(=O)NC(=O)C2)/C(C)=C\[C@@H](C)[C@@H]1O [Migrastatin]
anchorage-independent growth of human tumor cells (human tumor cells [2]): inhibit
migration of human tumor cells (human tumor cells [3]): inhibit

SMILES: COCO[C@H]1[C@H](C)COC(=O)CCCC/C=C/[C@@H]1OC [Compound 21]
closure of the scar in the wound healing assay (Ovcar3 tumor cells): inhibited the closure of the scar
IC50 [1, 5]: 0.075 ± 0.0065 µM
IC50 [1, 6]: 0.075 µM
inhibiting the migration of human ovarian cancer cells in the transwell assay [1]: highly potent

SMILES: CO[C@H]1[C@H](C)/C=C(/C)COCCCCC/C=C/[C@@H]1OC [compound 62]
IC50 [1, 5]: 0.18 µM

Second part, led by results:

IC50 [1, 5]: 0.738 ± 0.267 µM
SMILES: CO[C@H]1/C=C/CCCCC(=O)OC[C@@H](C)[C@@H]1O [Compound 22]

IC50 [1, 5]: 0.18 µM
SMILES: CO[C@H]1/C=C/CC/C=C/COC/C(C)=C\[C@@H](C)[C@@H]1O [compound 57]

stability in mice plasma (Stability in mice plasma): stable
SMILES: CO[C@H]1/C=C/CCCCCOC/C(C)=C\[C@@H](C)[C@@H]1O [compound 61]

IC50 [1, 5]: 0.027 ± 0.0058 µM
IC50 [1, 6]: 0.027 µM
SMILES: CO[C@H]1/C=C/CC/C=C/COC[C@@H](C)[C@@H]1O [Compound 30]
closure of the scar in the wound healing assay (Ovcar3 tumor cells): inhibited the closure of the scar
tumor metastasis, Luciferase tumor imaging [4]: significant inhibition of tumor metastasis
inhibiting the migration of human ovarian cancer cells in the transwell assay [1]: highly potent
